Measurements reported in patent publication US7064120B2, “Tricyclic pyridyl carboxamides and derivatives thereof tocolytic oxytocin receptor antagonists” (Wyeth, priority 2001, dated 2006).

Biological target: T1, human vasopressin V1a receptor subtype (Homo sapiens, UniProt P37288)
T1 construct: host or cells: CHO cells, stably transfected (pZeoSV vector for the Thibonnier line)
Experiment: Vasopressin binding in CHO cell membranes expressing human vasopressin V1a subtype receptors ([3H]Manning ligand radioligand binding)
Details: 100 nM
Procedure: Vasopressin Binding in Chinese Hamster Ovary Cell Membranes Expressing Human Vasopressin V1a Subtype Receptors
The trypsin is removed by aspiration and the cells dislodged by tapping. Cell Culture medium (e.g. 30 mL for 1:30 split) is immediately added and mixed well to inactivate trypsin. 1 mL of detached cells is added to new culture flasks containing fresh cell culture medium (e.g., into 25 mL per T-150 flask), and mixed gently. The cells are incubated at 37° C. in 5% CO2. The medium is changed at 3 to 4 days interval (or as appropriate). […] All steps are done under sterile conditions.
The cells are washed twice gently with Hank's Balanced Salt solution (e.g,. use 10 mL per T-150 flask). […] The contents are transferred to centrifuge tubes (50 mL) kept in an ice bath. All subsequent steps are done at 4° C. The tubes are centrifuged at 300×g for 15 min (1380 rpm on SORVAL, Model RT6000D, using the rotor for 50 mL tubes). The supernatant is discarded and the cells suspended in homogenizing buffer(10 mM Tris-HCl containing 0.25 M sucrose and 1 mM EDTA, pH 7.4) ensuring that the volume of the buffer is about ten times the volume of the cell pellet. The cells are pooled into a centrifuge tube (50 mL) and homogenized with Polytron at setting 6 for 10 sec. The homogenate is transferred into a Potter-Elvjehm homogenizer and homogenized with 3 strokes. The homogenate is centrifuged at 1500×g for 10 min at 4° C. (3100 rpm using SORVAL, model RT6000D, using the rotor for 50 mL tubes). The pellet is discarded. The supernatant is centrifuged at 100,000×g for 60 min. at 4° C. (Beckman L8-80M ultracentrifuge; spin at 37,500 rpm with rotor type 70 Ti for 50 mL tubes; 38,000 rpm with type 80Ti for 15 mL tubes; or 35,800 rpm with rotor type 45Ti). The supernantant is discarded and the pellet suspended in 3 to 4 mL of Tris buffer (50 mM TRIS-HCl, pH 7.4). The protein content is estimated by the Bradford or Lowry method. The volume of the membrane suspension is adjusted with the membrane buffer (50 mM Tris-HCl containing 0.1% BSA and 0.1 mM PMSF) to give 3.0 mg/mL (or as appropriate) of protein. The membranes are aliquoted and stored at −70° C.
In wells of a 96-well format microtiter plate, is added 90, 110 or 130 μL (to make up a final volume of 200 μL) of assay buffer containing 50 mM of Tris-HCl (pH 7.4), BSA (heat inactivated, protease-free), […], 1 mg % aprotinin, 1 mg % leupeptin, 2 mg % 1,10-phenanthroline, 10 mg % trypsin inhibitor, and 0.1 mM PMSF. The inhibitors are added on the day of the experiment. The components are mixed at room temperature, and then kept in ice bath following adjustment of the pH to 7.4. […] 20 μL of 50% DMSO is added for Manning and other peptide ligands and the assay buffer volume is adjusted accordingly. To each well is added 50 μL of frozen membrane suspension thawed immediately prior to use and diluted in the assay buffer to the required concentration (equivalent to 25 to 50 μg of protein/well as needed). 20 μL of 8 nM [^3H]Manning ligand in the assay buffer, prepared just before use, is added, and incubated at room temperature for 60 min. shaking the plate on a mechanical shaker for the first 15 min. The incubation is stopped by rapid filtration of the plate contents followed by wash with ice-cold buffer (50 mM Tris-HCl, pH 7.4) using a cell harvester (Tomtek and Printed filtermat-B filter paper). The filter paper is thoroughly dried (7–12 min. in a microwave oven) and impregnated with MeltiLex B/H melt-on scintillation wax sheets and the radioactivity counted in a betaplate scintillation counter.
Binding data is either reported as percent inhibition at a certain concentration or if an IC50 was calculated, as a nanomolar concentration.

T1 sequence (P37288 whole entry): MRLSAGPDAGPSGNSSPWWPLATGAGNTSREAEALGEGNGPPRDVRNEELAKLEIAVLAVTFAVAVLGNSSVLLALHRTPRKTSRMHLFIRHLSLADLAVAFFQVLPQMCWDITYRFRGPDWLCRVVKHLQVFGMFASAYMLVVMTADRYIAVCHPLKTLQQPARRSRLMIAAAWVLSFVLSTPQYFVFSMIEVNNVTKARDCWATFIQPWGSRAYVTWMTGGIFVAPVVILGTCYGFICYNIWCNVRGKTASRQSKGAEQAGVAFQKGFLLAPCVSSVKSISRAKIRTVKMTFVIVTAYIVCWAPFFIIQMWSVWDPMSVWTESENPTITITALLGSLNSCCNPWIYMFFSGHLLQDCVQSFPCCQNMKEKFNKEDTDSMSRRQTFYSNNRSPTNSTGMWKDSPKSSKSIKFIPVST

| inhibition at 0.1 µM [%] | SMILES |
| --- | --- |
| 7 | COc1ccccc1-c1ccc(C(=O)N2Cc3ccc(C(=O)NCc4ccccn4)n3Cc3ccccc32)cc1C [Example 24, 10-[(2′-Methoxy-2-methyl-[1,1′-biphenyl]-4-yl)carbonyl]-N-(2-pyridinylmethyl)-10,11-dihydro-5H-pyrrolo[2,1-c][1,4]benzodiazepine-3-carboxamide] |
| 21 | COc1cccc(-c2ccc(C(=O)N3Cc4ccc(C(=O)NCc5ccccn5)n4Cc4ccccc43)cc2C)c1 [Example 25, 10-[(3′-Methoxy-2-methyl-[1,1′-biphenyl]-4-yl)carbonyl]-N-(2-pyridinylmethyl)-10,11-dihydro-5H-pyrrolo[2,1-c][1,4]benzodiazepine-3-carboxamide] |
| 17 | COc1ccccc1-c1ccc(C(=O)N2Cc3ccc(C(=O)NCc4ccccn4)n3Cc3ccccc32)cc1 [Example 26, 10-[(2′-Methoxy-[1,1′-biphenyl]-4-yl)carbonyl]-N-(2-pyridinylmethyl)-10,11-dihydro-5H-pyrrolo[2,1-c][1,4]benzodiazepine-3-carboxamide] |
| 20 | Cc1ccccc1-c1ccc(C(=O)N2Cc3ccc(C(=O)NCc4ccccn4)n3Cc3ccccc32)cc1 [Example 27, 10-[(2′-Methyl-[1,1′-biphenyl]-4-yl)carbonyl]-N-(2-pyridinylmethyl)-10,11-dihydro-5H-pyrrolo[2,1-c][1,4]benzodiazepine-3-carboxamide] |
| 28 | COc1cc(C(=O)N2Cc3ccc(C(=O)NCc4ccccn4)n3Cc3ccccc32)ccc1-c1ccccc1C [Example 28, 10-[(2-Methoxy-2′-methyl-[1,1′-biphenyl]-4-yl)carbonyl]-N-(2-pyridinylmethyl)-10,11-dihydro-5H-pyrrolo[2,1-c][1,4]benzodiazepine-3-carboxamide] |
| 0 | COc1cc(-c2ccccc2C)c(Cl)cc1C(=O)N1Cc2ccc(C(=O)NCc3ccccn3)n2Cc2ccccc21 [Example 29, 10-[(6-Chloro-3-methoxy-2′-methyl-[1,1′-biphenyl]-4-yl)carbonyl]-N-(2-pyridinylmethyl)-10,11-dihydro-5H-pyrrolo[2,1-c][1,4]benzodiazepine-3-carboxamide] |
| -7 | COc1cccc(-c2cc(OC)c(C(=O)N3Cc4ccc(C(=O)NCc5ccccn5)n4Cc4ccccc43)cc2Cl)c1 [Example 30, 10-[(6-Chloro-3,3′-dimethoxy-[1,1′-biphenyl]-4-yl)carbonyl]-N-(2-pyridinylmethyl)-10,11-dihydro-5H-pyrrolo[2,1-c][1,4]benzodiazepine-3-carboxamide] |
| 6 | COc1cc(C(=O)N2Cc3ccc(C(=O)NCc4ccccn4)n3Cc3ccccc32)ccc1-c1cccc2ccccc12 [Example 31, 10-[3-Methoxy-4-(naphthalen-1-yl)benzoyl]-N-(2-pyridinylmethyl)-10,11-dihydro-5H-pyrrolo[2,1-c][1,4]benzodiazepine-3-carboxamide] |
| 13 | COc1ccccc1-c1ccc(C(=O)N2Cc3ccc(C(=O)NCc4ccccn4)n3Cc3ccccc32)cc1OC [Example 32, 10-[(2,2′-Dimethoxy-[1,1′-biphenyl]-4-yl)carbonyl]-N-(2-pyridinylmethyl)-10,11-dihydro-5H-pyrrolo[2,1-c][1,4]benzodiazepine-3-carboxamide] |
| 23 | COc1cccc(-c2ccc(C(=O)N3Cc4ccc(C(=O)NCc5ccccn5)n4Cc4ccccc43)cc2OC)c1 [Example 33, 10-[(2,3′-Dimethoxy-[1,1′-biphenyl]-4-yl)carbonyl]-N-(2-pyridinylmethyl)-10,11-dihydro-5H-pyrrolo[2,1-c][1,4]benzodiazepine-3-carboxamide] |
| 5 | O=C(NCc1ccccn1)c1ccc2n1Cc1ccccc1N(C(=O)c1ccc(-c3cccc4ccccc34)cc1Cl)C2 [Example 34, 10-[2-Chloro-4-(naphthalen-1-yl)benzoyl]-N-(2-pyridinylmethyl)-10,11-dihydro-5H-pyrrolo[2,1-c][1,4]benzodiazepine-3-carboxamide] |
| 4 | Cc1cc(C(=O)N2Cc3ccc(C(=O)NCc4ccccn4)n3Cc3ccccc32)ccc1-c1ccccc1C(F)(F)F [Example 35, 10-{[2-Methyl-2′-trifluoromethyl-[1,1′-biphenyl]-4-yl]carbonyl}-N-(2-pyridinylmethyl)-10,11-dihydro-5H-pyrrolo[2,1-c][1,4]benzodiazepine-3-carboxamide] |
| -3 | COc1ccccc1-c1ccc(C(=O)N2Cc3ccc(C(=O)NCc4cccnc4)n3Cc3ccccc32)cc1C [Example 36, 10-[(2′-Methoxy-2-methyl-[1,1′-biphenyl]-4-yl)carbonyl]-N-(3-pyridinylmethyl)-10,11-dihydro-5H-pyrrolo[2,1-c][1,4]benzodiazepine-3-carboxamide] |
| 12 | Cc1ccccc1-c1ccc(C(=O)N2Cc3ccc(C(=O)NCc4cccnc4)n3Cc3ccccc32)cc1C [Example 37, 10-[(2,2′-Dimethyl-[1,1′-biphenyl]-4-yl)carbonyl]-N-(3-pyridinylmethyl)-10,11-dihydro-5H-pyrrolo[2,1-c][1,4]benzodiazepine-3-carboxamide] |
| 0 | COc1cccc(-c2ccc(C(=O)N3Cc4ccc(C(=O)NCc5cccnc5)n4Cc4ccccc43)cc2C)c1 [Example 38, 10-[(3′-Methoxy-2-methyl-[1,1′-biphenyl]-4-yl)carbonyl]-N-(3-pyridinylmethyl)-10,11-dihydro-5H-pyrrolo[2,1-c][1,4]benzodiazepine-3-carboxamide] |
| 10 | COc1ccccc1-c1ccc(C(=O)N2Cc3ccc(C(=O)NCc4cccnc4)n3Cc3ccccc32)cc1 [Example 39, 10-[(2′-Methoxy-[1,1′-biphenyl]-4-yl)carbonyl]-N-(3-pyridinylmethyl)-10,11-dihydro-5H-pyrrolo[2,1-c][1,4]benzodiazepine-3-carboxamide] |
| 15 | Cc1ccccc1-c1ccc(C(=O)N2Cc3ccc(C(=O)NCc4cccnc4)n3Cc3ccccc32)cc1 [Example 40, 10-[(2′-Methyl-[1,1′-biphenyl]-4-yl)carbonyl]-N-(3-pyridinylmethyl)-10,11-dihydro-5H-pyrrolo[2,1-c][1,4]benzodiazepine-3-carboxamide] |
| 20 | COc1cc(C(=O)N2Cc3ccc(C(=O)NCc4cccnc4)n3Cc3ccccc32)ccc1-c1ccccc1C [Example 41, 10-[(2-Methoxy-2′-methyl-[1,1′-biphenyl]-4-yl)carbonyl]-N-(3-pyridinylmethyl)-10,11-dihydro-5H-pyrrolo[2,1-c][1,4]benzodiazepine-3-carboxamide] |
| -11 | COc1cc(-c2ccccc2C)c(Cl)cc1C(=O)N1Cc2ccc(C(=O)NCc3cccnc3)n2Cc2ccccc21 [Example 42, 10-[(6-Chloro-3-methoxy-2′-methyl-[1,1′-biphenyl]-4-yl)carbonyl]-N-(3-pyridinylmethyl)-10,11-dihydro-5H-pyrrolo[2,1-c][1,4]benzodiazepine-3-carboxamide] |
| -6 | COc1cccc(-c2cc(OC)c(C(=O)N3Cc4ccc(C(=O)NCc5cccnc5)n4Cc4ccccc43)cc2Cl)c1 [Example 43, 10-[(6-Chloro-3,3′-dimethoxy-[1,1′-biphenyl]-4-yl)carbonyl]-N-(3-pyridinylmethyl)-10,11-dihydro-5H-pyrrolo[2,1-c][1,4]benzodiazepine-3-carboxamide] |
